Measured values published in patent US12077503B2, “Substituted cyclic amides and their use as herbicides” (FMC CORPORATION, priority 2015, dated 2024).

Tests used:
Type in all cases: in vivo
[1] = system: barnyardgrass (Echinochloa crus-galli); assay: Test G Pre-Emergence Protocol; conditions: Echinochloa crus-galli, pre-emergence, 312 h, evaluated after 13 days; for pest or weed control at 15.625 g/ha: 15.625 g ai/ha, read-out: Barnyard grass damage rating (100=total damage to plant; 0=no damage to plant); for pest or weed control at 62.5 g/ha: 62.5 g ai/ha, 100=total damage to plant, 0=no damage to plant, read-out: plant damage rating, Barnyardgrass; for pest or weed control at 250 g/ha: 250 g ai/ha, read-out: Barnyardgrass damage rating (100=total damage to plant; 0=no damage to plant)
In short: (§1)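 Scores are visual damage ratings from 0 (no damage) to 100 (total plant kill), taken 13 days after treatment. Compound was sprayed one day post-sowing at 15.625, 62.5 or 250 g/ha in 50:50 acetone/water with 0.5% Tween 20.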

corn (Zea mays) [2] = assay: Test G Pre-Emergence Protocol; conditions: Zea mays, pre-emergence, 312 h, evaluated after 13 days; for plant injury at 15.625 g/ha: 15.625 g ai/ha; for plant injury at 15.625 g/ha / plant injury at 250 g/ha: read-out: Corn damage rating (100=total damage to plant; 0=no damage to plant); for plant injury at 62.5 g/ha: 62.5 g ai/ha, 100=total damage to plant, 0=no damage to plant, read-out: plant damage rating, Corn; for plant injury at 250 g/ha: 250 g ai/ha
In short: as §1

[3] = system: giant foxtail (Setaria faberi); assay: Test G Pre-Emergence Protocol; conditions: Setaria faberi, pre-emergence, 312 h, evaluated after 13 days; for pest or weed control at 15.625 g/ha: 15.625 g ai/ha; for pest or weed control at 15.625 g/ha / pest or weed control at 250 g/ha: read-out: Foxtail, Giant damage rating (100=total damage to plant; 0=no damage to plant); for pest or weed control at 62.5 g/ha: 62.5 g ai/ha, 100=total damage to plant, 0=no damage to plant, read-out: plant damage rating, Foxtail, Giant; for pest or weed control at 250 g/ha: 250 g ai/ha
In short: as §1

[4] = system: ivy-leaved morning glory (Ipomoea hederacea); assay: Test G Pre-Emergence Protocol; conditions: Ipomoea, pre-emergence, 312 h, evaluated after 13 days; for pest or weed control at 15.625 g/ha: 15.625 g ai/ha, read-out: Morning-glory, Ivy-leaved damage rating (100=total damage to plant; 0=no damage to plant); for pest or weed control at 62.5 g/ha: 62.5 g ai/ha, 100=total damage to plant, 0=no damage to plant, read-out: plant damage rating, Morningglory, Ivy-leaved; for pest or weed control at 250 g/ha: 250 g ai/ha, read-out: Morningglory, Ivy-leaved damage rating (100=total damage to plant; 0=no damage to plant)
In short: as §1

[5] = system: redroot pigweed (Amaranthus retroflexus); assay: Test G Pre-Emergence Protocol; conditions: Amaranthus retroflexus, pre-emergence, 312 h, evaluated after 13 days; for pest or weed control at 15.625 g/ha: 15.625 g ai/ha; for pest or weed control at 15.625 g/ha / pest or weed control at 250 g/ha: read-out: Pigweed, Redroot damage rating (100=total damage to plant; 0=no damage to plant); for pest or weed control at 62.5 g/ha: 62.5 g ai/ha, 100=total damage to plant, 0=no damage to plant, read-out: plant damage rating, Pigweed, Redroot; for pest or weed control at 250 g/ha: 250 g ai/ha
In short: as §1

[6] = system: velvetleaf (Abutilon theophrasti); assay: Test G Pre-Emergence Protocol; conditions: Abutilon theophrasti, pre-emergence, 312 h, evaluated after 13 days; for pest or weed control at 15.625 g/ha: 15.625 g ai/ha; for pest or weed control at 15.625 g/ha / pest or weed control at 250 g/ha: read-out: Velvetleaf damage rating (100=total damage to plant; 0=no damage to plant); for pest or weed control at 62.5 g/ha: 62.5 g ai/ha, 100=total damage to plant, 0=no damage to plant, read-out: plant damage rating, Velvetleaf; for pest or weed control at 250 g/ha: 250 g ai/ha
In short: as §1

[7] = system: barnyardgrass (Echinochloa crus-galli); assay: Test G Post-Emergence Protocol; conditions: Echinochloa crus-galli, post-emergence, 312 h; for pest or weed control at 15.625 g/ha: 15.625 g ai/ha, evaluated after 13 days (100=total damage to plant; 0=no damage to plant), read-out: Barnyardgrass damage rating; for pest or weed control at 62.5 g/ha: 62.5 g ai/ha, read-out: Barnyardgrass damage rating (100=total damage to plant; 0=no damage to plant); for pest or weed control at 62.5 g/ha / pest or weed control at 250 g/ha: evaluated after 13 days; for pest or weed control at 250 g/ha: 250 g ai/ha, read-out: damage to plant, Barnyardgrass (100=total damage to plant; 0=no damage to plant)
In short: (§2)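 Sow in soil; grow 8 d (24/16 °C, 14 h light, 65% humidity); spray 15.625/62.5/250 g/ha in acetone:water 50:50 + 0.5% Tween 20; grow on, water twice daily; score damage 0–100 at 13 d.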

corn (Zea mays) [8] = assay: Test G Post-Emergence Protocol; conditions: Zea mays, post-emergence, 312 h; for plant injury at 15.625 g/ha: 15.625 g ai/ha, evaluated after 13 days (100=total damage to plant; 0=no damage to plant), read-out: Corn damage rating; for plant injury at 62.5 g/ha: 62.5 g ai/ha, read-out: Corn damage rating (100=total damage to plant; 0=no damage to plant); for plant injury at 62.5 g/ha / plant injury at 250 g/ha: evaluated after 13 days; for plant injury at 250 g/ha: 250 g ai/ha, read-out: damage to plant, Corn (100=total damage to plant; 0=no damage to plant)
In short: as §2

[9] = system: giant foxtail (Setaria faberi); assay: Test G Post-Emergence Protocol; conditions: Setaria faberi, post-emergence, 312 h; for pest or weed control at 15.625 g/ha: 15.625 g ai/ha, evaluated after 13 days (100=total damage to plant; 0=no damage to plant), read-out: Foxtail, Giant damage rating; for pest or weed control at 62.5 g/ha: 62.5 g ai/ha, read-out: Foxtail, Giant damage rating (100=total damage to plant; 0=no damage to plant); for pest or weed control at 62.5 g/ha / pest or weed control at 250 g/ha: evaluated after 13 days; for pest or weed control at 250 g/ha: 250 g ai/ha, read-out: damage to plant, Foxtail, Giant (100=total damage to plant; 0=no damage to plant)
In short: as §2

[10] = system: ivy-leaved morning glory (Ipomoea hederacea); assay: Test G Post-Emergence Protocol; conditions: Ipomoea, post-emergence, 312 h; for pest or weed control at 15.625 g/ha: 15.625 g ai/ha, evaluated after 13 days (100=total damage to plant; 0=no damage to plant), read-out: Morningglory, Ivy-leaved damage rating; for pest or weed control at 62.5 g/ha: 62.5 g ai/ha, read-out: Morningglory, Ivy-leaved damage rating (100=total damage to plant; 0=no damage to plant); for pest or weed control at 62.5 g/ha / pest or weed control at 250 g/ha: evaluated after 13 days; for pest or weed control at 250 g/ha: 250 g ai/ha, read-out: damage to plant, Morningglory, Ivy-leaved (100=total damage to plant; 0=no damage to plant)
In short: as §2

[11] = system: redroot pigweed (Amaranthus retroflexus); assay: Test G Post-Emergence Protocol; conditions: Amaranthus retroflexus, post-emergence, 312 h; for pest or weed control at 15.625 g/ha: 15.625 g ai/ha, evaluated after 13 days (100=total damage to plant; 0=no damage to plant), read-out: Pigweed, Redroot damage rating; for pest or weed control at 62.5 g/ha: 62.5 g ai/ha, read-out: Pigweed, Redroot damage rating (100=total damage to plant; 0=no damage to plant); for pest or weed control at 62.5 g/ha / pest or weed control at 250 g/ha: evaluated after 13 days; for pest or weed control at 250 g/ha: 250 g ai/ha, read-out: damage to plant, Pigweed, Redroot (100=total damage to plant; 0=no damage to plant)
In short: as §2

[12] = system: velvetleaf (Abutilon theophrasti); assay: Test G Post-Emergence Protocol; conditions: Abutilon theophrasti, post-emergence, 312 h; for pest or weed control at 15.625 g/ha: 15.625 g ai/ha, evaluated after 13 days (100=total damage to plant; 0=no damage to plant), read-out: Velvetleaf damage rating; for pest or weed control at 62.5 g/ha: 62.5 g ai/ha, read-out: Velvetleaf damage rating (100=total damage to plant; 0=no damage to plant); for pest or weed control at 62.5 g/ha / pest or weed control at 250 g/ha: evaluated after 13 days; for pest or weed control at 250 g/ha: 250 g ai/ha, read-out: damage to plant, Velvetleaf (100=total damage to plant; 0=no damage to plant)
In short: as §2

SMILES | pest or weed control at 15.625 g/ha [1] [%] | pest or weed control at 62.5 g/ha [1] [%] | pest or weed control at 250 g/ha [1] [%] | plant injury at 15.625 g/ha (corn (Zea mays) [2]) [%] | plant injury at 62.5 g/ha (corn (Zea mays) [2]) [%] | plant injury at 250 g/ha (corn (Zea mays) [2]) [%] | pest or weed control at 15.625 g/ha [3] [%] | pest or weed control at 62.5 g/ha [3] [%] | pest or weed control at 250 g/ha [3] [%] | pest or weed control at 15.625 g/ha [4] [%] | pest or weed control at 62.5 g/ha [4] [%] | pest or weed control at 250 g/ha [4] [%] | pest or weed control at 15.625 g/ha [5] [%] | pest or weed control at 62.5 g/ha [5] [%] | pest or weed control at 250 g/ha [5] [%] | pest or weed control at 15.625 g/ha [6] [%] | pest or weed control at 62.5 g/ha [6] [%] | pest or weed control at 250 g/ha [6] [%] | pest or weed control at 15.625 g/ha [7] [%] | pest or weed control at 62.5 g/ha [7] [%] | further results
CN1C[C@H](c2ccc3c(c2)OCCO3)[C@@H](C(=O)Nc2cccc(F)c2F)C1=O (racemic) [Compound 1490] | 0 | 50 | 80 | 0 | 0 | 10 | 0 | 40 | 90 | 0 | 0 | 0 | 0 | 0 | 0 | 0 | 0 | 0 | 50 | 60 | pest or weed control at 250 g/ha [7]: 60%; plant injury at 15.625 g/ha (corn (Zea mays) [8]): 0%; plant injury at 62.5 g/ha (corn (Zea mays) [8]): 30%; plant injury at 250 g/ha (corn (Zea mays) [8]): 40%; pest or weed control at 15.625 g/ha [9]: 50%; pest or weed control at 62.5 g/ha [9]: 60%; pest or weed control at 250 g/ha [9]: 60%; pest or weed control at 15.625 g/ha [10]: 0%; pest or weed control at 62.5 g/ha [10]: 0%; pest or weed control at 250 g/ha [10]: 30%; pest or weed control at 15.625 g/ha [11]: 0%; pest or weed control at 62.5 g/ha [11]: 0%; pest or weed control at 250 g/ha [11]: 0%; pest or weed control at 15.625 g/ha [12]: 0%; pest or weed control at 62.5 g/ha [12]: 0%; pest or weed control at 250 g/ha [12]: 20%
CN1C[C@@H](c2ccc(C(F)(F)F)cc2)[C@H](C(=O)Nc2ccnc(C(F)(F)F)c2)C1=O (racemic) [Compound 1638] | 0 | 0 | 0 | 0 | 0 | 0 | 0 | 0 | 0 | 0 | 0 | 0 | 0 | 0 | 0 | 0 | 0 | 0 | 0 | 0 | pest or weed control at 250 g/ha [7]: 0%; plant injury at 15.625 g/ha (corn (Zea mays) [8]): 0%; plant injury at 62.5 g/ha (corn (Zea mays) [8]): 0%; plant injury at 250 g/ha (corn (Zea mays) [8]): 0%; pest or weed control at 15.625 g/ha [9]: 0%; pest or weed control at 62.5 g/ha [9]: 0%; pest or weed control at 250 g/ha [9]: 0%; pest or weed control at 15.625 g/ha [10]: 0%; pest or weed control at 62.5 g/ha [10]: 0%; pest or weed control at 250 g/ha [10]: 0%; pest or weed control at 15.625 g/ha [11]: 0%; pest or weed control at 62.5 g/ha [11]: 0%; pest or weed control at 250 g/ha [11]: 0%; pest or weed control at 15.625 g/ha [12]: 0%; pest or weed control at 62.5 g/ha [12]: 0%; pest or weed control at 250 g/ha [12]: 0%
